The results in this text go back to patent US20250074943A1, “DLL3 BINDING PEPTIDES AND USES THEREOF” (AMGEN INC., priority 2021, published 2025).

In the assay the target is T1, recombinant DLL3 ectodomain (rhDLL3-Fc) (Homo sapiens, UniProt Q9NYJ7).
T1 construct: The recombinant DLL3 ectodomain (rhDLL3-Fc) was biotinylated; Fc
T1 sequence (Q9NYJ7 27-492 limits assumed): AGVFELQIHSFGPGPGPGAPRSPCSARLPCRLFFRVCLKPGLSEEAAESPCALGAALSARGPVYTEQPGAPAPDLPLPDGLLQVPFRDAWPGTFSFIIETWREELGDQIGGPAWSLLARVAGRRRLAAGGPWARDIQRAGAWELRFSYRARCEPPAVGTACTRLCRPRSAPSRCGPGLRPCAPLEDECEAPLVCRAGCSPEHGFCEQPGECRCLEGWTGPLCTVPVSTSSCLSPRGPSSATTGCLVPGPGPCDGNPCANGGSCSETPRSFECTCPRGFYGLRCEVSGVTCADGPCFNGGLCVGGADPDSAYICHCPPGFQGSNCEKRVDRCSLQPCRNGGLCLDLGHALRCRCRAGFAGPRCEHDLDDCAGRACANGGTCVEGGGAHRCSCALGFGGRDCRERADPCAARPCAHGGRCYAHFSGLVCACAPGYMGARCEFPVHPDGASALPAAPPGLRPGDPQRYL
Description: Binding kinetic assay using Bio-layer interferometry (BLI). The following applies: for binding mode to DLL3: peptides at 20, 4 and 0.8 μM, fit to 1:1 Langmuir binding model; for affinity: wider dose-response 10×KD to 0.1×KD. As for the experimental part:
Binding kinetic assays were performed using Bio-layer interferometry (BLI) technology. The recombinant DLL3 ectodomain (rhDLL3-Fc) was biotinylated using EZ-Link Sulfo-NHS-LC-LC-Biotin Kit according to the manufacturer's protocol (Pierce by Thermo Fisher Scientific). The recombinant protein was incubated with an excess of NHS-LC-LC Biotin ester, in a molar ratio of 1:3 (protein: biotin), at 25° C. for 90 min. The un-reacted biotin ester was removed by subsequent buffer exchange on 0.5 ml Zeba spin desalting columns 7K MWCO (Pierce by Thermo Fisher Scientific).
In general terms: In BLI a coated tip is dipped into the sample, and binding shifts an interference pattern.

Setting [1] is: Table 4, ± values from three independent experiments, read-out: RT (residence time) (converted).
[2] abbreviates: range over the seven peptides, read-out: residence time.

pKd: −log10 of the molar value. Like-named read-outs stand apart in the source and are kept apart here. Bridge positions count the residues as written; N and C are the ends. Peptide text beside a SMILES is read from it.

One may read the residence time as the mean lifetime of the complex, commonly the reciprocal of the off-rate. As to `CC(C)[C@H](NC(=O)[C@@H](NC(=O)[C@H](CCC(=O)O)NC(=O)[C@H](C)N)[C@@H](C)O)C(=O)N[C@@H](CCC(=O)O)C(=O)N[C@@H](Cc1ccccc1)C(=O)N[C@@H](Cc1c[nH]c2ccccc12)C(=O)N[C@H](C(=O)N[C@H]1CSSC[C@@H](C(=O)N[C@@H](CO)C(=O)N[C@@H](Cc2c[nH]c3ccccc23)C(N)=O)NC(=O)[C@H]([C@@H](C)O)NC(=O)[C@H](Cc2c[nH]c3ccccc23)NC(=O)[C@H](CCC(=O)O)NC(=O)[C@H](CC(=O)O)NC(=O)[C@H](C)NC(=O)[C@H](CC(N)=O)NC(=O)CNC(=O)[C@H](Cc2c[nH]cn2)NC1=O)[C@@H](C)O` [PepSP1162] (H-AETVEFWTCHGNADEWTCSW-NH2; disulfide 9-18), the “binding mode to DLL3” value is “dose-response saturable binding”. Further, under setting [1], the residence time is 0.85 min.
As to `CC(C)[C@H](NC(=O)[C@@H](NC(=O)[C@H](CCC(=O)O)NC(=O)[C@H](C)N)[C@@H](C)O)C(=O)N[C@@H](CCC(=O)O)C(=O)N[C@@H](Cc1ccccc1)C(=O)N[C@@H](Cc1c[nH]c2ccccc12)C(=O)N[C@@H](CO)C(=O)N[C@H]1CSSC[C@@H](C(=O)NCC(=O)N[C@H](C(N)=O)[C@@H](C)O)NC(=O)[C@H](CO)NC(=O)[C@H](C(C)C)NC(=O)[C@H]([C@@H](C)O)NC(=O)[C@H](Cc2c[nH]c3ccccc23)NC(=O)[C@H](Cc2ccc(O)cc2)NC(=O)[C@H](CO)NC(=O)[C@H](Cc2ccc(O)cc2)NC(=O)[C@H](Cc2c[nH]cn2)NC1=O` [PepSP1157] (H-AETVEFWSCHYSYWTVSCGT-NH2; disulfide 9-18; N-terminus assumed), the “binding mode to DLL3” value was “dose-response saturable binding”. Under setting [1], the residence time was 1.48 min.
Turning to `CC(C)C[C@H](NC(=O)[C@H](Cc1ccccc1)NC(=O)[C@H](CCC(=O)O)NC(=O)[C@@H](NC(=O)[C@@H](NC(=O)[C@H](CCC(=O)O)NC(=O)[C@H](C)N)[C@@H](C)O)C(C)C)C(=O)NCC(=O)N[C@H]1CSSC[C@@H](C(=O)N[C@H](C(=O)N[C@@H](Cc2c[nH]c3ccccc23)C(N)=O)C(C)C)NC(=O)[C@H]([C@@H](C)O)NC(=O)[C@H](Cc2c[nH]c3ccccc23)NC(=O)[C@H](CCC(=O)O)NC(=O)[C@H](CO)NC(=O)[C@H](CC(N)=O)NC(=O)[C@H](CC(=O)O)NC(=O)CNC(=O)[C@H](Cc2c[nH]cn2)NC1=O` [PepSP1163] (H-AETVEFLGCHGDNSEWTCVW-NH2; disulfide 9-18), the “binding mode to DLL3” value is given as “dose-response saturable binding” and the affinity result was “double-digit nM range”. The “RT (residence time)” value (Table 4, ± values from three independent experiments) was determined as 166.8 ± 19.5 s. Also, under setting [1], the residence time is 2.78 min. The residence time under setting [2] lay within 1 to 3 min.
`CC(C)C[C@H](NC(=O)[C@@H]1CSSC[C@H](NC(=O)CNC(=O)[C@H](Cc2ccc(O)cc2)NC(=O)[C@H](Cc2ccccc2)NC(=O)[C@H](CCC(=O)O)NC(=O)[C@@H](NC(=O)[C@@H](NC(=O)[C@H](CCC(=O)O)NC(=O)[C@H](C)N)[C@@H](C)O)C(C)C)C(=O)N[C@@H](CCC(=O)O)C(=O)N[C@@H]([C@@H](C)O)C(=O)N[C@@H](Cc2ccc(O)cc2)C(=O)N[C@@H](CO)C(=O)NCC(=O)NCC(=O)N[C@@H](Cc2c[nH]c3ccccc23)C(=O)N[C@@H]([C@@H](C)O)C(=O)N1)C(=O)N[C@@H](Cc1c[nH]c2ccccc12)C(N)=O` [PepSP1167] (H-AETVEFYGCETYSGGWTCLW-NH2; disulfide 9-18): the “binding mode to DLL3” value was “dose-response saturable binding”. Further, under setting [1], the residence time is 0.783 min.
For the compound `CC(C)[C@H](NC(=O)[C@@H](NC(=O)[C@H](CCC(=O)O)NC(=O)[C@H](C)N)[C@@H](C)O)C(=O)N[C@@H](CCC(=O)O)C(=O)N[C@@H](Cc1ccccc1)C(=O)N[C@@H](Cc1ccc(O)cc1)C(=O)NCC(=O)N[C@H]1CSSC[C@@H](C(=O)N[C@H](C(=O)N[C@@H](Cc2c[nH]c3ccccc23)C(N)=O)[C@@H](C)O)NC(=O)[C@H]([C@@H](C)O)NC(=O)[C@H](Cc2ccc(O)cc2)NC(=O)[C@H](CC(=O)O)NC(=O)[C@H](CC(N)=O)NC(=O)[C@H](CCCNC(=N)N)NC(=O)[C@H](CC(=O)O)NC(=O)CNC(=O)[C@H](Cc2ccc(O)cc2)NC1=O` [PepSP1178] (H-AETVEFYGCYGDRNDYTCTW-NH2; disulfide 9-18; N-terminus assumed), the “binding mode to DLL3” value is “dose-response saturable binding” and the affinity entry is “double-digit nM range”. In addition, the residence time under setting [1] was 1.27 min. For the same compound, the residence time under setting [2] was in the range of 1 to 3 min.
`CC(C)[C@@H]1NC(=O)[C@H]([C@@H](C)O)NC(=O)[C@H](CCC(=O)O)NC(=O)[C@H](CCC(=O)O)NC(=O)[C@H](Cc2ccc(O)cc2)NC(=O)[C@H](Cc2c[nH]c3ccccc23)NC(=O)[C@H](CC(=O)O)NC(=O)[C@@H](NC(=O)[C@H](CCCNC(=N)N)NC(=O)[C@H](Cc2c[nH]c3ccccc23)NC(=O)[C@H](Cc2ccc(O)cc2)NC(=O)[C@H](CCC(=O)O)NC(=O)[C@@H](NC(=O)[C@@H](NC(=O)[C@H](CCC(=O)O)NC(=O)[C@H](C)N)[C@@H](C)O)C(C)C)CSSC[C@@H](C(=O)NCC(=O)N[C@H](C(N)=O)[C@@H](C)O)NC(=O)[C@H](C)NC1=O` [PepSP1155] (H-AETVEYWRCDWYEETVACGT-NH2; disulfide 9-18): the “binding mode to DLL3” value is given as “dose-response saturable binding”. Also, under setting [1], the residence time is 2.95 min.
In the same order, the values of `CC(C)[C@H](NC(=O)[C@@H]1CSSC[C@H](NC(=O)CNC(=O)[C@H](CCCNC(=N)N)NC(=O)[C@H](Cc2ccccc2)NC(=O)[C@H](CCC(=O)O)NC(=O)[C@@H](NC(=O)[C@@H](NC(=O)[C@H](CCC(=O)O)NC(=O)[C@H](C)N)[C@@H](C)O)C(C)C)C(=O)N[C@@H]([C@@H](C)O)C(=O)NCC(=O)N[C@@H](CC(N)=O)C(=O)N[C@@H](C(C)C)C(=O)N[C@@H](Cc2ccc(O)cc2)C(=O)N[C@@H](CC(=O)O)C(=O)N[C@@H](Cc2c[nH]c3ccccc23)C(=O)N[C@@H]([C@@H](C)O)C(=O)N1)C(=O)N[C@@H](Cc1c[nH]c2ccccc12)C(N)=O` [PepSP1160] (H-AETVEFRGCTGNVYDWTCVW-NH2; disulfide 9-18) are “dose-response saturable binding” and 0.783 min.
In the same order, the values of `CC(C)[C@H](NC(=O)[C@@H]1CSSC[C@H](NC(=O)CNC(=O)[C@H](Cc2ccc(O)cc2)NC(=O)[C@H](Cc2ccccc2)NC(=O)[C@H](CCC(=O)O)NC(=O)[C@@H](NC(=O)[C@@H](NC(=O)[C@H](CCC(=O)O)NC(=O)[C@H](C)N)[C@@H](C)O)C(C)C)C(=O)N[C@@H](CCCNC(=N)N)C(=O)NCC(=O)NCC(=O)N[C@@H](CC(=O)O)C(=O)NCC(=O)N[C@@H](CCC(=O)O)C(=O)N[C@@H](Cc2c[nH]c3ccccc23)C(=O)N[C@@H]([C@@H](C)O)C(=O)N1)C(=O)N[C@@H](Cc1c[nH]c2ccccc12)C(N)=O` [PepSP1165] (H-AETVEFYGCRGGDGEWTCVW-NH2; disulfide 9-18; N-terminus assumed) are “dose-response saturable binding” and 1.1 min.
Regarding `CC(C)C[C@H](NC(=O)[C@@H]1CSSC[C@H](NC(=O)CNC(=O)[C@H](Cc2ccc(O)cc2)NC(=O)[C@H](Cc2ccccc2)NC(=O)[C@H](CCC(=O)O)NC(=O)[C@@H](NC(=O)[C@@H](NC(=O)[C@H](CCC(=O)O)NC(=O)[C@H](C)N)[C@@H](C)O)C(C)C)C(=O)N[C@@H](Cc2ccc(O)cc2)C(=O)NCC(=O)N[C@@H](CCC(=O)O)C(=O)N[C@@H](CCC(N)=O)C(=O)N[C@@H](CCC(=O)O)C(=O)N[C@@H](CCC(N)=O)C(=O)N[C@@H](Cc2c[nH]c3ccccc23)C(=O)N[C@@H]([C@@H](C)O)C(=O)N1)C(=O)N[C@@H](Cc1c[nH]c2ccccc12)C(N)=O` [PepSP1173] (H-AETVEFYGCYGEQEQWTCLW-NH2; disulfide 9-18), the “binding mode to DLL3” value is listed as “dose-response saturable binding”. Further, the residence time under setting [1] was 1.68 min.
A word on the pKd: it is the negative decadic logarithm of the Kd, by convention in mol/L. For the compound `CC(C)[C@H](NC(=O)[C@@H](NC(=O)[C@H](CCC(=O)O)NC(=O)[C@H](C)N)[C@@H](C)O)C(=O)N[C@@H](CCC(=O)O)C(=O)N[C@@H](Cc1ccccc1)C(=O)N[C@@H](CC(=O)O)C(=O)NCC(=O)N[C@H]1CSSC[C@@H](C(=O)N[C@@H](Cc2c[nH]c3ccccc23)C(=O)N[C@@H](Cc2c[nH]c3ccccc23)C(N)=O)NC(=O)[C@H]([C@@H](C)O)NC(=O)[C@H](Cc2c[nH]c3ccccc23)NC(=O)[C@H](CCC(=O)O)NC(=O)[C@H](Cc2ccc(O)cc2)NC(=O)[C@H](Cc2c[nH]c3ccccc23)NC(=O)[C@H](CC(=O)O)NC(=O)CNC(=O)[C@H](CCCCN)NC1=O` [PepSP1164] (H-AETVEFDGCKGDWYEWTCWW-NH2; disulfide 9-18), the “binding mode to DLL3” value is “dose-response saturable binding”. In addition, under “Table 4, global fitting 1:1 Langmuir, koff vs kon ratio, ± values from three independent experiments”, the pKd was 6.90. For the same compound, the residence time under setting [1] is 2.08 min.
